For the test, the system named is C. trachomatis serovar LGV-L2. The test can be described thus: Inhibition of infectious Chlamydia progenies (C. trachomatis infectivity, reinfection of HeLa cells, IFU count). It is filed as cell-based. The following applies: infected HeLa cells, MOI 0.3, compound added 1 hpi, 44-48 h, relative to DMSO-treated control; for inhibition at 2.5 µM: 2.5 uM compound; for inhibition at 10 µM: 10 uM compound. Here is the method:
Cell Culture, C. trachomatis Infections, and Determination of C. trachomatis Infectivity.
HeLa cells were infected with C. trachomatis serovar LGV-L2 at an MOI of 0.3. At 1 hpi, RPMI media containing the different dilutions of the tested compounds in DMSO were added. The different compounds were dissolved to 20 mM in DMSO and were then diluted with RPMI media to be added at 2.5 to 100 μM. After 44-48 h incubation, the cells were osmotically lysed by the addition of cold sterile distilled water to release infectious EB progeny. 5×SPG was added to equalize the osmotic pressure to a 1×SPG isotonic condition. An equal amount of HBSS (Hanks balanced salt solution) (Gibco/Invitrogen) was added to the lysate (yielding a 1:1 dilution) and 10-fold serial dilutions of the resulting mixture was used to infect fresh HeLa cells. At 1 hpi, the inoculum was replaced with RPMI media and the infection allowed to progress for 44-48 hours before fixation and staining. Fixation was performed by adding methanol for 5 minutes and the cells were subsequently washed with phosphate buffered saline (PBS). The chlamydial inclusions were stained by a primary rabbit anti-Chlamydia antibody (generated in-house) and a secondary donkey anti-rabbit FITC-labelled antibody (Jackson ImmunoResearch). The DNA of the cells and Chlamydia was stained by the addition of DAPI. The stained cells were analyzed by an ArrayScan automated scanner (ArrayScan VTI HCS, Thermo Scientific). Data were presented as the relative numbers of IFUs in treated infections compared to the numbers of IFUs in DMSO-treated control infections.
The compounds of Examples 1-33 were tested for inhibition of infectious Chlamydia progenies at concentrations of 2.5 μM, 10 μM, 50 μM and 100 μM. In this document μM stands for micromolar. The compounds of the present disclosure were considered to have antibacterial activity if they provided 50% or more inhibition of infectious Chlamydia progenies using at least one of the tested concentrations in Table 1.

Molecules are shown by their SMILES.

`COc1c(Cc2cccc3ccccc23)cc(=O)n2c1SC[C@H]2C(=O)Nc1ccccc1` [Example 1, {(3R)-7-Methoxy-6-[(1-naphthyl)methyl]-4-oxo-1-thia-3a-aza-3-indanyl}anilinoformaldehyde] registered an inhibition at 2.5 µM of 100%.
The molecule `COc1c(Cc2cccc3ccccc23)cc(=O)n2c1SC[C@H]2C(=O)Nc1ccc(C)cc1` [Example 2, {(3R)-7-Methoxy-6-[(1-naphthyl)methyl]-4-oxo-1-thia-3a-aza-3-indanyl}(p-toluidino)formaldehyde] yielded an inhibition at 2.5 µM of 96% and an inhibition at 10 µM of 100%.
The corresponding values for `COc1c(Cc2cccc(C)c2C)cc(=O)n2c1SC[C@H]2C(=O)Nc1ccccc1` [Example 3, {(3R)-7-Methoxy-4-oxo-6-[(2,3-xylyl)methyl]-1-thia-3a-aza-3-indanyl}anilinoformaldehyde] are 95% and 100%.
On to `COc1c(Cc2cccc(C)c2C)cc(=O)n2c1SC[C@H]2C(=O)Nc1cc(C)cc(F)c1` [Example 4, {(3R)-7-Methoxy-4-oxo-6-[(2,3-xylyl)methyl]-1-thia-3a-aza-3-indanyl}(3-fluoro-5-toluidino)formaldehyde], for which the inhibition at 2.5 µM was 99% and testing at 10 µM gave an inhibition of 100%.
For `COc1c(Cc2cccc(C)c2C)cc(=O)n2c1SC[C@H]2C(=O)Nc1ccc(C)cc1` [Example 5, {(3R)-7-Methoxy-4-oxo-6-[(2,3-xylyl)methyl]-1-thia-3a-aza-3-indanyl}(p-toluidino)formaldehyde], in that order: 100% and 100%.
As to `COc1c(Cc2cccc3ccccc23)c(N)c(=O)n2c1SC[C@H]2C(=O)Nc1ccccc1` [Example 6, {(3R)-5-Amino-7-methoxy-6-[(1-naphthyl)methyl]-4-oxo-1-thia-3a-aza-3-indanyl}anilinoformaldehyde], testing at 2.5 µM gave an inhibition of 63% and at 10 µM the inhibition was 100%.
For `COc1c(Cc2cccc(C)c2C)c(N)c(=O)n2c1SC[C@H]2C(=O)Nc1ccc(C)cc1` [Example 7, {(3R)-5-Amino-7-methoxy-4-oxo-6-[(2,3-xylyl)methyl]-1-thia-3a-aza-3-indanyl}(p-toluidino)formaldehyde], in that order: 90% and 100%.
Molecule `COc1c(Cc2cccc(C)c2C)c(N)c(=O)n2c1SC[C@H]2C(=O)Nc1cc(C)cc(F)c1` [Example 8, {(3R)-5-Amino-7-methoxy-4-oxo-6-[(2,3-xylyl)methyl]-1-thia-3a-aza-3-indanyl}(3-fluoro-5-toluidino)formaldehyde] displayed an inhibition at 2.5 µM of 87% and an inhibition at 10 µM of 100%.
Molecule `COc1c(Cc2cccc3ccccc23)c(N)c(=O)n2c1SC[C@H]2C(=O)Nc1ccc(C)cc1` [Example 9, {(3R)-5-Amino-7-methoxy-6-[(1-naphthyl)methyl]-4-oxo-1-thia-3a-aza-3-indanyl}(p-toluidino)formaldehyde] came in with an inhibition at 2.5 µM of 89% and an inhibition at 10 µM of 100%.
For the molecule `O=C(Nc1ccccc1)[C@@H]1CSc2c(O)c(Cc3cccc4ccccc34)cc(=O)n21` [Example 10, {(3R)-7-Hydroxy-6-[(1-naphthyl)methyl]-4-oxo-1-thia-3a-aza-3-indanyl}anilinoformaldehyde], the inhibition at 2.5 µM worked out at 88% and the inhibition at 10 µM was determined as 98%.
`O=C(Nc1ccccc1)[C@@H]1CSc2c(Cl)c(Cc3cccc4ccccc34)cc(=O)n21` [Example 11, {(3R)-7-Chloro-6-[(1-naphthyl)methyl]-4-oxo-1-thia-3a-aza-3-indanyl}anilinoformaldehyde]: the inhibition at 2.5 µM came out at 97% and the inhibition at 10 µM was found to be 100%.
The molecule `O=C(Nc1ccccc1)[C@@H]1CSc2c(C(F)(F)F)c(Cc3cccc4ccccc34)cc(=O)n21` [Example 12, {(3R)-6-[(1-Naphthyl)methyl]-4-oxo-7-(trifluoromethyl)-1-thia-3a-aza-3-indanyl}anilinoformaldehyde] had an inhibition at 2.5 µM of 98% and an inhibition at 10 µM of 100%.
Consider `COc1c(Cc2cccc(C)c2C)c(N)c(=O)n2c1SC[C@H]2C(=O)Nc1ccccc1` [Example 13, {(3R)-5-Amino-7-methoxy-4-oxo-6-[(2,3-xylyl)methyl]-1-thia-3a-aza-3-indanyl}anilinoformaldehyde], for which the inhibition at 2.5 µM turned out to be 75% and 10 µM produced 100% inhibition.
`COc1c(Cc2cccc(C)c2C)c(N)c(=O)n2c1SC[C@H]2c1nc(-c2ccccc2)no1` [Example 14, (3R)-5-Amino-7-methoxy-3-(3-phenyl-1,2,4-oxadiazol-5-yl)-6-[(2,3-xylyl)methyl]-1-thia-3a-aza-4-indanone]: at 2.5 µM the inhibition was 76% and the inhibition at 10 µM was 100%.
For `COc1c(Cc2cccc(C)c2C)cc(=O)n2c1SC[C@H]2c1nnc(-c2ccccc2)o1` [Example 15, (3R)-7-Methoxy-3-(5-phenyl-1,3,4-oxadiazol-2-yl)-6-[(2,3-xylyl)methyl]-1-thia-3a-aza-4-indanone], in that order: 84% and 100%.
The corresponding values for `COc1c(Cc2cccc(C)c2C)cc(=O)n2c1SC[C@H]2c1nc(-c2ccccc2)no1` [Example 16, (3R)-7-Methoxy-3-(3-phenyl-1,2,4-oxadiazol-5-yl)-6-[(2,3-xylyl)methyl]-1-thia-3a-aza-4-indanone] are 81% and 100%.
The molecule `COc1c(COc2cccc(C)c2C)cc(=O)n2c1SC[C@H]2C(=O)Nc1ccc(Cl)cn1` [Example 17, {(3R)-7-Methoxy-4-oxo-6-[(2,3-xylyloxy)methyl]-1-thia-3a-aza-3-indanyl}(5-chloro-2-pyridylamino)formaldehyde] returned an inhibition at 2.5 µM of 79% and an inhibition at 10 µM of 100%.
Molecule `Cc1cccc(OCc2cc(=O)n3c(c2C2CC2)SCC3C(=O)Nc2ccccc2)c1C` (centres unmarked) [Example 19, Anilino{7-cyclopropyl-4-oxo-6-[(2,3-xylylyloxy)methyl]-1-thia-3a-aza-3-indanyl}formaldehyde] returned an inhibition at 2.5 µM of 100%.
As to `Cc1ccc(NC(=O)[C@@H]2CSc3c(C4CC4)c(Cc4cccc(C)c4C)cc(=O)n32)cc1` [Example 20, {(3R)-7-Cyclopropyl-4-oxo-6-[(2,3-xylyl)methyl]-1-thia-3a-aza-3-indanyl}(p-toluidino)formaldehyde], at 2.5 µM the inhibition was 99%.
As to `Cc1ccc(NC(=O)[C@@H]2CSc3c(C4CC4)c(Cc4ccc(Cl)cc4)cc(=O)n32)cc1` [Example 21, {(3R)-6-[(p-Chlorophenyl)methyl]-7-cyclopropyl-4-oxo-1-thia-3a-aza-3-indanyl}(p-toluidino)formaldehyde], the inhibition at 2.5 µM is 99%.
Consider `O=c1cc(Cc2cccc3ccccc23)c(C2CC2)c2n1[C@H](c1nc(-c3ccccc3)n[nH]1)CS2` [Example 22, (3R)-7-Cyclopropyl-6-[(1-naphthyl)methyl]-3-(5-phenyl-2H-1,2,4-triazol-3-yl)-1-thia-3a-aza-4-indanone], for which at 2.5 µM the inhibition was 98% and the inhibition at 10 µM worked out at 100%.

What is called inhibition is the drop in the measured response relative to a control, in per cent. Read a low inhibition as little suppression.

The values above are taken from patent US10294244B2, “2,3-dihydro-thiazolo[3,2-A]pyridin-5-one derivatives, intermediates thereof, and their use as antibacterial agents” (Quretech Bio AB, priority 2014, dated 2019).
